This passage reports IC50 and Activity results from ChEMBL document CHEMBL1146406, “Inhibition of Bacterial RNA Polymerases. Peptide Metabolites from the Cultures of Streptomyces sp” (J Nat Prod, 1997).

Activity calls are given as the source filed them. The calls are words filed in the database; no cut-off is given here. Numbered stars: 1 amine (or outer) side, 2 acyl side, 3 side chain; on linkers, the order of the positions; unused ones are H or OH. Bridge positions count the residues as written; N and C are the ends. Square brackets hold non-standard residues; d marks the D form. Peptide text beside a SMILES is read from it. * marks the point of attachment. X2 = C[C@H](Oc1ccc([C@H](N[*:1])C(=O)[*:2])cc1)[C@@]1(/C=C/C(=O)[*:3])CO1; X1 = CC(C)[C@H](O)[C@H](C)C(=O)*; aIle = CC[C@@H](C)[C@H](N)C(=O)O; dNMeF = CN[C@H](Cc1ccccc1)C(=O)O; aThr = C[C@H](O)[C@H](N)C(=O)O

The nature of experiment [1]: (§1) Inhibition of Staphylococcus aureus RNA polymerase by high throughput filtration assay.
The species entered for another experiment is Homo sapiens. In words: Inhibition of human RNA polymerase.
The nature of experiment [2]: (§2) Inhibition of Escherichia coli RNA polymerase by high throughput filtration assay.
In the next experiment the test system is Staphylococcus aureus. The experiment is described as §1.
A further experiment concerns Escherichia coli. Described as §2.

The IC50 is the point on the concentration scale where inhibition reaches its midpoint. High values mean weaker potency in that assay, low ones greater potency in that assay. As to `CC[C@@H](C)[C@@H]1NC(=O)[C@H](NC(=O)[C@@H](C)[C@@H](O)C(C)C)[C@H](C)OC(=O)[C@H]2COC(=O)CNC(=O)/C=C/[C@@]3(CO3)[C@H](C)Oc3ccc(cc3)[C@H](NC1=O)C(=O)N(C)[C@H](Cc1ccccc1)C(=O)N[C@@H]([C@H](C)O)C(=O)N2` [SALINAMIDE A] (X1-[dT][aIle][X2][dNMeF][aThr][dS]; ester 1-C; linker 3-6 via G), the IC50 in experiment [1] and in experiment [2] was 500 nM in each case. The outcome in the experiment filed under Homo sapiens was inactive.
For the compound `CC[C@@H](C)[C@@H]1NC(=O)[C@@H](CC(C)C)NC(=O)[C@H](CC(C)C)NC(=O)[C@H](Cc2c[nH]c3ccccc23)NC(=O)CNC(=O)[C@H](CC(N)=O)NC1=O` (cyclo(GWL[dL][aIle]N)), the result in the experiment with Staphylococcus aureus and in the experiment on Escherichia coli was inactive.
